The results in this text go back to article PMC5218480 (PLoS ONE, 2017).

In this assay the test system is MV-4-11 cells. Briefly: Gene expression microarray analysis (Affymetrix PrimeView) and GSEA. In kind it is cell-based, human. Further details: RFU PODN (11730768_x_at) / Fold change /veh PODN (11730768_x_at) / RFU LINC00158 (11744669_a_at) / Fold change /veh LINC00158 (11744669_a_at) / RFU DUSP10 (11751237_a_at) / Fold change /veh DUSP10 (11751237_a_at) / RFU ID3 (11757404_x_at) / Fold change /veh ID3 (11757404_x_at) / RFU PLEKHG5 (11737974_s_at) / Fold change /veh PLEKHG5 (11737974_s_at) / RFU LRRC4B (11730491_at) / Fold change /veh LRRC4B (11730491_at) / RFU GIMAP4 (11747438_a_at) / Fold change /veh GIMAP4 (11747438_a_at) / RFU KRT8 (11758183_x_at) / Fold change /veh KRT8 (11758183_x_at) / RFU CNN1 (11734310_a_at) / Fold change /veh CNN1 (11734310_a_at) / RFU VPS37D (11726825_at) / Fold change /veh VPS37D (11726825_at) / RFU C10orf10 (11716522_x_at) / Fold change /veh C10orf10 (11716522_x_at) / RFU KIR2DL2 /// KIR2DL4 /// KIR2DL5A /// KIR2DL5B /// KIR2DS1 /// KIR2DS2 /// KIR2DS3 /// KIR2DS4 /// KIR3DL3 /// KIR3DL3 /// KIR3DS1 (11738374_at) / Fold change /veh KIR2DL2 /// KIR2DL4 /// KIR2DL5A /// KIR2DL5B /// KIR2DS1 /// KIR2DS2 /// KIR2DS3 /// KIR2DS4 /// KIR3DL3 /// KIR3DL3 /// KIR3DS1 (11738374_at) / RFU C1QL1 (11718748_at) / Fold change /veh C1QL1 (11718748_at) / RFU TMPRSS4 (11747572_a_at) / Fold change /veh TMPRSS4 (11747572_a_at) / RFU HAMP (11756126_x_at) / Fold change /veh HAMP (11756126_x_at) / RFU RNFT2 (11725882_a_at) / Fold change /veh RNFT2 (11725882_a_at) / RFU NR4A2 (11747474_a_at) / Fold change /veh NR4A2 (11747474_a_at) / RFU ABCC12 (11746883_a_at) / Fold change /veh ABCC12 (11746883_a_at) / RFU TMEM136 (11760407_x_at) / Fold change /veh TMEM136 (11760407_x_at) / RFU CLDN22 /// WWC2 (11732394_at) / Fold change /veh CLDN22 /// WWC2 (11732394_at) / RFU HLA-DPB1 (11760878_x_at) / Fold change /veh HLA-DPB1 (11760878_x_at) / RFU SPINT1 (11716480_a_at) / Fold change /veh SPINT1 (11716480_a_at) / RFU GAP43 (11754022_s_at) / Fold change /veh GAP43 (11754022_s_at) / RFU A4GNT (11735810_at) / Fold change /veh A4GNT (11735810_at) / RFU PRB3 (11715151_x_at) / Fold change /veh PRB3 (11715151_x_at) / RFU TUBB4B (11761932_at) / Fold change /veh TUBB4B (11761932_at) / RFU CAPN14 (11732068_a_at) / Fold change /veh CAPN14 (11732068_a_at) / RFU TMCC2 (11721928_a_at) / Fold change /veh TMCC2 (11721928_a_at) / RFU IRGQ (11745062_a_at) / Fold change /veh IRGQ (11745062_a_at) / RFU FAM174B (11720279_a_at) / Fold change /veh FAM174B (11720279_a_at) / RFU TMPRSS4 (11748680_a_at) / Fold change /veh TMPRSS4 (11748680_a_at) / RFU FAM212B (11763350_a_at) / Fold change /veh FAM212B (11763350_a_at) / RFU PLEKHG5 (11743358_a_at) / Fold change /veh PLEKHG5 (11743358_a_at) / RFU ZSCAN30 (11745921_a_at) / Fold change /veh ZSCAN30 (11745921_a_at) / RFU CMKLR1 (11741424_a_at) / Fold change /veh CMKLR1 (11741424_a_at) / RFU LOC101060620 /// MAPK8IP1 (11723275_at) / Fold change /veh LOC101060620 /// MAPK8IP1 (11723275_at) / RFU SPTSSB (11747773_x_at) / Fold change /veh SPTSSB (11747773_x_at) / RFU PRSS12 (11739890_at) / Fold change /veh PRSS12 (11739890_at) / RFU BIN1 (11741810_x_at) / Fold change /veh BIN1 (11741810_x_at) / RFU WNT11 (11732464_a_at) / Fold change /veh WNT11 (11732464_a_at) / RFU C10orf10 (11716521_a_at) / Fold change /veh C10orf10 (11716521_a_at) / RFU C5orf56 (11738089_at) / Fold change /veh C5orf56 (11738089_at) / RFU CYB561 (11721691_x_at) / Fold change /veh CYB561 (11721691_x_at) / RFU ANKRD19P (11752326_a_at) / Fold change /veh ANKRD19P (11752326_a_at) / RFU OR2T12 /// OR2T33 /// OR2T8 (11738714_s_at) / Fold change /veh OR2T12 /// OR2T33 /// OR2T8 (11738714_s_at) / RFU VCAN (11748164_a_at) / Fold change /veh VCAN (11748164_a_at) / RFU JSRP1 (11732532_at) / Fold change /veh JSRP1 (11732532_at) / RFU KRTAP10-11 (11738290_x_at) / Fold change /veh KRTAP10-11 (11738290_x_at) / RFU MYO3A (11730013_a_at) / Fold change /veh MYO3A (11730013_a_at) / RFU EBF3 (11725865_a_at) / Fold change /veh EBF3 (11725865_a_at) / RFU CAMK2N1 (11719241_x_at) / Fold change /veh CAMK2N1 (11719241_x_at) / RFU C5orf56 (11738088_a_at) / Fold change /veh C5orf56 (11738088_a_at) / RFU OLFML3 (11715873_a_at) / Fold change /veh OLFML3 (11715873_a_at) / RFU LOC100653217 /// NTM (11731650_a_at) / Fold change /veh LOC100653217 /// NTM (11731650_a_at) / RFU MAPK11 (11762145_a_at) / Fold change /veh MAPK11 (11762145_a_at) / RFU FIZ1 (11724087_x_at) / Fold change /veh FIZ1 (11724087_x_at) / RFU OASL (11726364_x_at) / Fold change /veh OASL (11726364_x_at) / RFU SOX15 (11748057_x_at) / Fold change /veh SOX15 (11748057_x_at) / RFU CD79A (11719716_a_at) / Fold change /veh CD79A (11719716_a_at) / RFU HIST1H1D (11736915_at) / Fold change /veh HIST1H1D (11736915_at) / RFU CASKIN2 (11723855_a_at) / Fold change /veh CASKIN2 (11723855_a_at) / RFU LOC730098 (11760151_x_at) / Fold change /veh LOC730098 (11760151_x_at) / RFU OR4N2 (11742367_at) / Fold change /veh OR4N2 (11742367_at) / RFU PRRT2 (11749266_a_at) / Fold change /veh PRRT2 (11749266_a_at) / RFU SNX32 (11753110_a_at) / Fold change /veh SNX32 (11753110_a_at) / RFU CDHR5 (11726645_a_at) / Fold change /veh CDHR5 (11726645_a_at) / RFU RCAN1 (11760418_a_at) / Fold change /veh RCAN1 (11760418_a_at) / RFU FAM167A (11723789_a_at) / Fold change /veh FAM167A (11723789_a_at) / RFU FAM26E (11764081_at) / Fold change /veh FAM26E (11764081_at) / RFU ISYNA1 (11749810_s_at) / Fold change /veh ISYNA1 (11749810_s_at) / RFU ACY1 (11761880_at) / Fold change /veh ACY1 (11761880_at) / RFU 11764098_at / Fold change /veh 11764098_at / RFU SAMD14 (11745864_x_at) / Fold change /veh SAMD14 (11745864_x_at) / RFU NPB (11741838_a_at) / Fold change /veh NPB (11741838_a_at) / RFU TMPRSS6 (11731388_a_at) / Fold change /veh TMPRSS6 (11731388_a_at) / RFU KRTAP10-2 (11738614_at) / Fold change /veh KRTAP10-2 (11738614_at) / RFU ARHGAP8 /// PRR5-ARHGAP8 (11727945_x_at) / Fold change /veh ARHGAP8 /// PRR5-ARHGAP8 (11727945_x_at) / RFU KRTAP5-7 /// NADSYN1 (11734609_at) / Fold change /veh KRTAP5-7 /// NADSYN1 (11734609_at) / RFU RASL12 (11751679_a_at) / Fold change /veh RASL12 (11751679_a_at) / RFU CDKN2B (11736163_a_at) / Fold change /veh CDKN2B (11736163_a_at) / RFU PRF1 (11729649_at) / Fold change /veh PRF1 (11729649_at) / RFU, ZNF638 /// ZNF638-IT1 / Fold change vs veh, ZNF638 /// ZNF638-IT1 / RFU, PANK3 / Fold change vs veh, PANK3 / RFU, SH3YL1 / Fold change vs veh, SH3YL1 / RFU, ZEB2 / Fold change vs veh, ZEB2 / RFU, NRIP1 / Fold change vs veh, NRIP1 / RFU, PTTG1IP / Fold change vs veh, PTTG1IP / RFU, CAPN2 / Fold change vs veh, CAPN2 / RFU, MED14 / Fold change vs veh, MED14 / RFU, SNORA58 / Fold change vs veh, SNORA58 / RFU, C1orf63 / Fold change vs veh, C1orf63 / RFU, LRRFIP1 / Fold change vs veh, LRRFIP1 / RFU, NDUFAF7 / Fold change vs veh, NDUFAF7 / RFU, SLC12A2 / Fold change vs veh, SLC12A2 / RFU, IBTK / Fold change vs veh, IBTK / RFU, ESF1 / Fold change vs veh, ESF1 / Fold change vs veh, TMEM50B / RFU, TAOK1 / Fold change vs veh, TAOK1 / RFU, ACBD3 / Fold change vs veh, ACBD3 / RFU, TMA16 / Fold change vs veh, TMA16 / RFU, RWDD3 / Fold change vs veh, RWDD3 / RFU, BCAT1 / Fold change vs veh, BCAT1 / RFU, EDEM3 / Fold change vs veh, EDEM3 / RFU, TMEM33 / Fold change vs veh, TMEM33 / RFU, WDR75 / Fold change vs veh, WDR75 / RFU, AHCTF1 / Fold change vs veh, AHCTF1 / RFU, TFRC / Fold change vs veh, TFRC / RFU, ZDHHC17 / Fold change vs veh, ZDHHC17 / RFU, NOM1 / Fold change vs veh, NOM1 / RFU, ARL8B / Fold change vs veh, ARL8B / RFU, ZBTB11 / Fold change vs veh, ZBTB11 / RFU, TAMM41 / Fold change vs veh, TAMM41 / RFU, KIAA1704 /// LOC100996395 / Fold change vs veh, KIAA1704 /// LOC100996395 / RFU, ING1 / Fold change vs veh, ING1 / RFU, TRMT61B / Fold change vs veh, TRMT61B / RFU, FUBP3 / Fold change vs veh, FUBP3 / RFU, TP53 / Fold change vs veh, TP53 / RFU, TNKS2 / Fold change vs veh, TNKS2 / RFU, ZFP14 / Fold change vs veh, ZFP14 / RFU, ACTR2 / Fold change vs veh, ACTR2 / RFU, PPP3R1 / Fold change vs veh, PPP3R1 / RFU, PIK3R1 / Fold change vs veh, PIK3R1 / RFU, HNRNPA1 / Fold change vs veh, HNRNPA1 / RFU, RNF170 / Fold change vs veh, RNF170 / RFU, ZNF28 / Fold change vs veh, ZNF28 / RFU, RNGTT / Fold change vs veh, RNGTT / RFU, OGT / Fold change vs veh, OGT / RFU, BRD1 / Fold change vs veh, BRD1 / RFU, MARS / Fold change vs veh, MARS / RFU, ZNF655 / Fold change vs veh, ZNF655 / RFU, FAHD1 / Fold change vs veh, FAHD1 / RFU, BDP1 / Fold change vs veh, BDP1 / RFU, LRRCC1 / Fold change vs veh, LRRCC1 / RFU, ARID1A / Fold change vs veh, ARID1A / RFU, ZNF146 / Fold change vs veh, ZNF146 / RFU, ZNF330 / Fold change vs veh, ZNF330 / RFU, GPN3 / Fold change vs veh, GPN3 / RFU, C9orf123 / Fold change vs veh, C9orf123 / RFU, N4BP2L2 / Fold change vs veh, N4BP2L2 / RFU, ARFIP1 / Fold change vs veh, ARFIP1 / RFU, FAM179B / Fold change vs veh, FAM179B / RFU, BCL10 / Fold change vs veh, BCL10 / RFU, UHRF1BP1L / Fold change vs veh, UHRF1BP1L / RFU, BET1 / Fold change vs veh, BET1 / RFU, CNOT2 / Fold change vs veh, CNOT2 / RFU, ZNF268 / Fold change vs veh, ZNF268 / Fold change vs veh, ZNF507 / RFU, DGCR2 / Fold change vs veh, DGCR2 / RFU, WDSUB1 / Fold change vs veh, WDSUB1 / Fold change vs veh, HSP90B1 /// MIR3652 / RFU, ADSS / Fold change vs veh, ADSS / RFU, GK / Fold change vs veh, GK / RFU, ZNF148 / Fold change vs veh, ZNF148 / RFU, TAF9 / Fold change vs veh, TAF9 / RFU, SLC1A5 / Fold change vs veh, SLC1A5 / RFU, SLMO2 / Fold change vs veh, SLMO2 / RFU, ABCC4 / Fold change vs veh, ABCC4 / RFU, LOC101060439 /// RAP1B / Fold change vs veh, LOC101060439 /// RAP1B / RFU, RFX7 / Fold change vs veh, RFX7 / RFU, GTPBP10 / Fold change vs veh, GTPBP10 / RFU, CNEP1R1 / Fold change vs veh, CNEP1R1 / RFU, BIVM-ERCC5 /// ERCC5 / Fold change vs veh, BIVM-ERCC5 /// ERCC5 / RFU, ILF3 / Fold change vs veh, ILF3 / RFU 11762660_at / Fold change /veh 11762660_at / RFU VCAN (11757783_s_at) / Fold change /veh VCAN (11757783_s_at) / RFU DDX43 (11728927_at) / Fold change /veh DDX43 (11728927_at) / RFU KRT8 (11758188_x_at) / Fold change /veh KRT8 (11758188_x_at) / RFU NKD1 (11759106_at) / Fold change /veh NKD1 (11759106_at) / RFU SRD5A1 (11742802_a_at) / Fold change /veh SRD5A1 (11742802_a_at) / RFU TPSAB1 /// TPSB2 (11721975_s_at) / Fold change /veh TPSAB1 /// TPSB2 (11721975_s_at) / RFU GSTM3 (11746129_a_at) / Fold change /veh GSTM3 (11746129_a_at) / RFU IL23R (11737362_x_at) / Fold change /veh IL23R (11737362_x_at) / RFU TMEM51 (11727254_a_at) / Fold change /veh TMEM51 (11727254_a_at) / RFU PIWIL2 (11732686_x_at) / Fold change /veh PIWIL2 (11732686_x_at) / RFU ORM1 (11744905_x_at) / Fold change /veh ORM1 (11744905_x_at) / RFU CCDC152 (11743942_at) / Fold change /veh CCDC152 (11743942_at) / RFU ECM1 (11717891_a_at) / Fold change /veh ECM1 (11717891_a_at) / RFU IL23R (11748794_a_at) / Fold change /veh IL23R (11748794_a_at) / RFU TNFAIP8L3 (11732012_x_at) / Fold change /veh TNFAIP8L3 (11732012_x_at) / RFU MBOAT4 (11741988_at) / Fold change /veh MBOAT4 (11741988_at) / RFU 11764193_at / Fold change /veh 11764193_at / RFU TMEM53 (11763286_at) / Fold change /veh TMEM53 (11763286_at) / RFU MAGEB2 (11727129_at) / Fold change /veh MAGEB2 (11727129_at) / RFU TMEM200A (11744735_a_at) / Fold change /veh TMEM200A (11744735_a_at) / RFU CCDC152 (11751479_a_at) / Fold change /veh CCDC152 (11751479_a_at) / RFU FAM211A (11726209_a_at) / Fold change /veh FAM211A (11726209_a_at) / RFU RGS16 (11746705_a_at) / Fold change /veh RGS16 (11746705_a_at) / RFU VCAN (11755009_s_at) / Fold change /veh VCAN (11755009_s_at) / RFU RHOB (11743442_s_at) / Fold change /veh RHOB (11743442_s_at) / RFU RGS16 (11720943_a_at) / Fold change /veh RGS16 (11720943_a_at) / RFU RGS16 (11720944_at) / Fold change /veh RGS16 (11720944_at) / RFU, VPS4B / Fold change vs veh, VPS4B / RFU, CREB1 / Fold change vs veh, CREB1 / RFU, DNAJC13 / Fold change vs veh, DNAJC13 / RFU, GNAQ / Fold change vs veh, GNAQ / RFU, CDK5R1 / Fold change vs veh, CDK5R1 / RFU, ZRANB3 / Fold change vs veh, ZRANB3 / RFU, CUL4A / Fold change vs veh, CUL4A / RFU, CCNY / Fold change vs veh, CCNY / RFU, UFL1 / Fold change vs veh, UFL1 / RFU, COG3 / Fold change vs veh, COG3 / RFU, DIAPH2 / Fold change vs veh, DIAPH2 / RFU, SKA2 / Fold change vs veh, SKA2 / RFU, AFF3 / Fold change vs veh, AFF3 / RFU, LMF1 / Fold change vs veh, LMF1 / RFU, IPO11 / Fold change vs veh, IPO11 / RFU, DFFB / Fold change vs veh, DFFB / RFU, FOXP1 / Fold change vs veh, FOXP1 / RFU, CARD8 / Fold change vs veh, CARD8 / RFU, STRN3 / Fold change vs veh, STRN3 / RFU, ADK / Fold change vs veh, ADK / RFU, RASSF2 / Fold change vs veh, RASSF2 / RFU, WIPF1 / Fold change vs veh, WIPF1 / RFU, LARP1B / Fold change vs veh, LARP1B / RFU, RASA1 / Fold change vs veh, RASA1 / RFU, RB1 / Fold change vs veh, RB1 / RFU, PPFIA1 / Fold change vs veh, PPFIA1 / RFU, MAT2A / Fold change vs veh, MAT2A / RFU, CCT5 / Fold change vs veh, CCT5 / RFU, WDR92 / Fold change vs veh, WDR92 / RFU, CUX1 / Fold change vs veh, CUX1 / RFU, TTC7A / Fold change vs veh, TTC7A / RFU, TMEM135 / Fold change vs veh, TMEM135 / RFU, DEPTOR / Fold change vs veh, DEPTOR / RFU, CPM / Fold change vs veh, CPM / RFU, DNAJB6 / Fold change vs veh, DNAJB6 / RFU, CACNA2D3 / Fold change vs veh, CACNA2D3 / RFU, DTX4 / Fold change vs veh, DTX4 / RFU, TFCP2 / Fold change vs veh, TFCP2 / RFU, GMCL1 /// GMCL1P1 / Fold change vs veh, GMCL1 /// GMCL1P1 / RFU, AEBP2 / Fold change vs veh, AEBP2 / RFU, SNHG1 /// SNORD22 /// SNORD25 /// SNORD26 /// SNORD27 /// SNORD28 /// SNORD29 /// SNORD31 / Fold change vs veh, SNHG1 /// SNORD22 /// SNORD25 /// SNORD26 /// SNORD27 /// SNORD28 /// SNORD29 /// SNORD31 / Fold change (Aza/veh), C12orf56 (ProbeSet 11735607_a_at) / Fold change (ACY-1035/veh), C12orf56 (ProbeSet 11735607_a_at) / Fold change (Aza/veh), FGFR1OP (ProbeSet 11751329_s_at) / Fold change (ACY-1035/veh), FGFR1OP (ProbeSet 11751329_s_at) / Fold change (Aza/veh), VPS36 (ProbeSet 11739960_a_at) / Fold change (ACY-1035/veh), VPS36 (ProbeSet 11739960_a_at) / RFU SYPL1 (11715823_x_at) / Fold change /veh SYPL1 (11715823_x_at) / RFU IGFBP7 (11715501_s_at) / Fold change /veh IGFBP7 (11715501_s_at) / RFU REEP3 (11722064_at) / Fold change /veh REEP3 (11722064_at) / RFU IGLL1 (11728026_x_at) / Fold change /veh IGLL1 (11728026_x_at): dose or concentration left out as unconfirmed. As to conditions: MV-4-11 cells, 48 hours.

Molecules are shown by their SMILES.

In the case of `Nc1ccc(-c2cccs2)cc1NC(=O)c1ccc2c(c1)cc(C1CC1)n2CCN1CCOCC1` [ACY-1035], the “Fold change /veh NPB (11741838_a_at)” value came out at 0.93.
